Reference: PubChem BioAssay (NCI)
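Protocol summary: plate cells (96-well), add compound at 5 concentrations, incubate 48 h, interpolate endpoints linearly. GI50 marks 50% less growth. Definition used: TGI = concentration required for complete inhibition of growth.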 Where a SMILES comes first, the peptide text is derived from it. [ ]: non-standard residue; d: D form. The star is where a group is joined. Bn2Val = CC(C)[C@@H](C(=O)*)N(Cc1ccccc1)Cc1ccccc1; NH(4-Cl-benzyl) = Clc1ccc(CN*)cc1; NMeV = CN[C@H](C(=O)O)C(C)C; dNMeA = CN[C@H](C)C(=O)O

Columns and labels:
Experiment in all cases: DTP human tumour cell line panel, 48 h
[1] = test system: ACHN renal
[2] = test system: HL-60(TB) leukemia
[3] = test system: MCF7 breast
[4] = test system: MDA-MB-231 breast
[5] = test system: OVCAR-5 ovarian
[6] = test system: OVCAR-8 ovarian
[7] = test system: SF-539 CNS
[8] = test system: TK-10 renal
[9] = test system: T-47D breast
[10] = test system: NCI-H522 lung

Compound | TGI [1] | TGI [2] | TGI [3] | TGI [4] | TGI [5] | TGI [6] | TGI [7] | TGI [8] | TGI [9] | TGI [10] | GI50 [1] | GI50 [5] | GI50 [8]
CC(C)(C)OC(=O)NCC(CNC(=O)OC(C)(C)C)c1nc(C(N)=O)cs1 | > 100 µM | > 100 µM | > 100 µM | > 100 µM | > 100 µM | > 100 µM | > 100 µM | > 100 µM |  |  |  |  | 
C=CCC1C(O[Si](C)(C)C(C)(C)C)C(CO[Si](C)(C)C(C)(C)C)OC1n1ccc(=O)[nH]c1=O (centres undefined) |  |  |  | 4.52 µM | 2.57 µM | 3.41 µM | 3.03 µM |  | 4.37 µM |  |  |  | 
O=c1c(-c2ccccc2)c(SCCO)n(-c2ccccc2)c(=S)n1-c1ccccc1 | > 100 µM | > 100 µM | > 100 µM |  | > 100 µM | > 100 µM |  | > 100 µM |  | > 100 µM |  |  | 
CCN=C1C=CC(=C(c2ccc(N(CC)CC)cc2)c2ccc(N(CC)CC)cc2)c2ccccc21 | 1.07 µM |  |  |  | 1.23 µM |  |  | 1.13 µM |  |  | 0.194 µM | 0.294 µM | 0.0422 µM
C/C(=N\Nc1nc2cc(C(F)(F)F)ccc2s1)c1ccccn1 | 5.84 µM | 0.872 µM |  | 0.791 µM | 23.4 µM | 1.93 µM | 14.3 µM | 17.3 µM | 15.4 µM | 4.96 µM |  |  | 
CC1(C)CC2(CC(C)(C)N1O)NC(=O)OC2=O |  | > 100 µM | > 100 µM |  | > 100 µM | > 100 µM | > 100 µM |  |  | > 100 µM |  |  | 
Cc1cc(OC(=O)NCn2cc(-c3ccccc3)nn2)ccc1Cl | > 100 µM | > 100 µM | > 100 µM | > 100 µM | > 100 µM | > 100 µM | > 100 µM | > 100 µM |  | > 100 µM |  |  | 
c1ccc(/C(=N/Nc2ccncn2)c2ccccn2)cc1 | 88.1 µM |  | > 100 µM | > 100 µM | > 100 µM | 50.2 µM | > 100 µM |  |  | 4.14 µM |  |  | 
COc1cccc(N[C@@H]2c3cc4c(cc3C(c3cc(OC)c(O)c(OC)c3)[C@H]3C(=O)OCC32)OCO4)c1 (some centres undefined) |  | 0.487 µM | 14.4 µM |  | > 74.2 µM | > 23.1 µM | 2.52 µM |  |  | 8.02 µM |  |  | 
Cc1cc(=O)[nH]c(NN2C(Cl)C(=O)C2c2ccc([N+](=O)[O-])cc2)n1 (centres undefined) | 33.7 µM | 24.9 µM |  |  | 52.8 µM | 82.5 µM | 27 µM | 29.7 µM |  |  |  |  | 
C/C(=N\Nc1nc2ccccc2n1C)c1cc2ccccc2cn1 | 11.8 µM | 1.41 µM |  | 3.21 µM | 21.6 µM | 4.24 µM | 14.5 µM | 6.86 µM | 5.66 µM | 4.67 µM |  |  | 
O=c1oc(C(C(F)(F)F)C(F)(F)F)nc2ccccc12 | > 100 µM | > 100 µM | > 100 µM | > 100 µM | > 100 µM | > 100 µM | > 100 µM | > 100 µM |  | > 100 µM |  |  | 
O=c1[nH]n(Cc2ccccc2)c2ccc([N+](=O)[O-])cc12 | > 100 µM | > 100 µM | > 100 µM | 78.6 µM | > 100 µM | > 100 µM | > 100 µM | > 100 µM |  | > 100 µM |  |  | 
CC(C)(C)[Si](C)(C)OCc1cccc(OCCOc2cccc(CO[Si](C)(C)C(C)(C)C)c2[N+](=O)[O-])c1[N+](=O)[O-] | > 100 µM | > 100 µM | > 100 µM |  | > 100 µM | > 100 µM | > 100 µM | > 100 µM | > 100 µM | > 100 µM |  |  | 
CN=C(/N=c1\ssc(=NC)n1C)N(C)C | > 100 µM | > 100 µM |  |  | > 100 µM | > 100 µM | > 100 µM | > 100 µM |  | > 100 µM |  |  | 
CC(C)(C)n1c(=O)[nH]c(=O)n1C(C)(C)C | > 100 µM | > 100 µM | > 100 µM | > 100 µM | > 100 µM | > 100 µM | > 100 µM | > 100 µM |  |  |  |  | 
CC(C)[C@H](NC(=O)[C@H](C(C)C)N(Cc1ccccc1)Cc1ccccc1)C(=O)N(C)[C@H](C(=O)N1CCC[C@H]1C(=O)N(C)[C@H](C)C(=O)NCc1ccc(Cl)cc1)C(C)C (Bn2Val-V[NMeV]P[dNMeA]-{NH(4-Cl-benzyl)}) | 10.1 µM | 3.97 µM |  | 11.8 µM | > 100 µM | > 100 µM | 62.3 µM | > 100 µM | > 100 µM | 4.97 µM |  |  | 
CCCSc1ccc2[nH]c(N3C(=O)/C(=C/c4ccccc4)N=C3c3ccccc3)cc2c1 | > 50 µM | 30.2 µM | > 50 µM |  | > 50 µM | > 50 µM | > 50 µM |  | > 50 µM | 36 µM |  |  | 
NCc1cccc(O)c1O | > 100 µM | > 100 µM |  |  | > 100 µM | > 100 µM |  | > 100 µM |  | > 100 µM |  |  | 
Cc1ccccc1-c1nc2c(C(=O)NCCN(C)C)cccc2[nH]1 |  | > 74.6 µM | > 100 µM |  | > 100 µM | > 100 µM | > 100 µM |  |  | > 100 µM |  |  | 
